Assay results published in PMC7501296, “Rapid and direct control of target protein levels with VHL-recruiting dTAG molecules” (Nature Communications, 2020).
Values joined by “and” are separate entries in the source; they are usually repeats but may differ in a detail not shown here. Equal values may be shown once.

Experiments:
Assay type in all cases: cell-based
CDK9 = molecular target: T1, CDK9 (Homo sapiens, UniProt P50750); assay: Immunoblot, co-treatment with THAL-SNS-032 and/or dTAGV-1 in PATU-8902 LACZ-FKBP12F36V clone; conditions: co-treatment dTAGV-1 + THAL-SNS-032, 24 h
T1 construct: endogenous in cells; host or cells: PATU-8902 LACZ-FKBP12^F36V clone
Procedure: PATU-8902 LACZ-FKBP12^F36V and FKBP12^F36V-KRAS^G12V; KRAS^−/− cells and 293T cells were lysed with RIPA buffer supplemented with cOmplete protease inhibitors (Roche), PhosSTOP phosphatase inhibitors (Roche), and 0.1% benzonase (Novagen). Proteins were separated using NuPAGE Bolt^TM Bis–Tris gels (Thermo Fisher Scientific) and transferred to nitrocellulose membranes, which were blocked with Odyssey Blocking Buffer (LI-COR) and incubated with primary antibodies overnight. Membranes were washed three times with TBS-T, incubated with the appropriate fluorescently labeled infrared secondary antibodies, washed again three times with TBS-T, and assessed using an Odyssey CLx Imager (LI-COR)[6],[15]. EWS502 cells were lysed with Cell Lysis Buffer (Cell Signaling Technology) supplemented with cOmplete protease inhibitors (Roche). Proteins were separated using SDS-PAGE gels and transferred to PVDF membranes, which were blocked with 5% milk in TBS-T and incubated with primary antibodies overnight. Membranes were washed five times with TBS-T, incubated with the appropriate horseradish peroxidase-conjugated secondary antibodies, washed again five times with TBS-T, and imaged. The following primary antibodies were employed in this study: HA (Cell Signaling Technology #3724 and #2367, dilution at 1:1000), phospho-ERK1/2 T202/Y204 (Cell Signaling Technology #4370, dilution at 1:1000), ERK1/2 (Cell Signaling Technology #4696, dilution at 1:1000), phospho-AKT S473 (Cell Signaling Technology #4060, dilution at 1:1000), AKT (Cell Signaling Technology #2920, dilution at 1:1000), FKBP12 (Abcam #ab24373, dilution at 1:1000), GFP (Cell Signaling Technology #2555, dilution at 1:1000), FLI (Abcam #ab15289, dilution at 1:2000), NKX2-2 (Abcam #ab187375, dilution at 1:1000), GAPDH (Cell Signaling Technology #2118, dilution at 1:3000), Vinculin (Cell Signaling Technology #13901, dilution at 1:3000), β-Actin (Cell Signaling Technology #58169, dilution at 1:3000), and α-Tubulin (Cell Signaling Technology #3873, dilution at 1:5000). […]

[1] = test system: PATU-8902 FKBP12^F36V-KRAS^G12V; KRAS^-/- clone; assay: Antiproliferation, PATU-8902 FKBP12F36V-KRASG12V; KRAS-/- clone, 2D-monolayer (CellTiter-Glo)
FKBP12^F36V-EWS/FLI = assay: Immunoblot of EWS502 FKBP12F36V-EWS/FLI; EWS/FLI-/- cells
Procedure: To generate 293T^WT FKBP12^F36V-KRAS^G12V and 293T^VHL−/− FKBP12^F36V-KRAS^G12V cells, concentrated lentiviral supernatants[6] were applied to 293T^WT and 293T^VHL−/− cells[33] in the presence of 4 µg mL^−1 polybrene and transduced cell lines were selected with 2 µg mL^−1 puromycin. To generate EWS502 FKBP12^F36V-GFP cells, EWS502 cells were transduced with pLEX_305-dTAG-GFP lentiviral supernatant and selected with 1 µg mL^−1 puromycin. To generate EWS502 FKBP12^F36V-EWS/FLI; EWS/FLI^−/− cells, EWS502 cells were co-transduced with pLEX_305-dTAG-EWS/FLI and lentiCRISPR v2-Blast-sgFLI_Ex9 lentiviral supernatants. Cells were then selected with both 1 µg mL^−1 puromycin (pLEX_305-dTAG-EWS/FLI) and 5 µg mL^−1 blasticidin (lentiCRISPR v2-Blast-sgFLI_Ex9). Knockout of endogenous EWS/FLI and the expression of exogenous FKBP12^F36V-EWS/FLI were confirmed by immunoblot and pooled transduced cell populations were employed for this study. PATU-8902 LACZ-FKBP12^F36V and FKBP12^F36V-KRAS^G12V; KRAS^−/− clones were also employed in this study.
PATU-8902 LACZ-FKBP12^F36V and FKBP12^F36V-KRAS^G12V; KRAS^−/− cells and 293T cells were lysed with RIPA buffer supplemented with cOmplete protease inhibitors (Roche), PhosSTOP phosphatase inhibitors (Roche), and 0.1% benzonase (Novagen). Proteins were separated using NuPAGE Bolt^TM Bis–Tris gels (Thermo Fisher Scientific) and transferred to nitrocellulose membranes, which were blocked with Odyssey Blocking Buffer (LI-COR) and incubated with primary antibodies overnight. Membranes were washed three times with TBS-T, incubated with the appropriate fluorescently labeled infrared secondary antibodies, washed again three times with TBS-T, and assessed using an Odyssey CLx Imager (LI-COR)[6],[15]. EWS502 cells were lysed with Cell Lysis Buffer (Cell Signaling Technology) supplemented with cOmplete protease inhibitors (Roche). Proteins were separated using SDS-PAGE gels and transferred to PVDF membranes, which were blocked with 5% milk in TBS-T and incubated with primary antibodies overnight. Membranes were washed five times with TBS-T, incubated with the appropriate horseradish peroxidase-conjugated secondary antibodies, washed again five times with TBS-T, and imaged. […]

[2] = test system: EWS502 FKBP12^F36V-EWS/FLI; EWS/FLI^−/− cells; assay: Relative growth of EWS502 FKBP12F36V-EWS/FLI; EWS/FLI-/- cells (CellTiter-Glo); conditions: for Antiproliferation (relative growth): replicate values
Procedure: Cell viability was assayed in 2D-adherent or ultra-low adherent 3D-spheroids using CellTiter-Glo (Promega)[6],[15]. Luminescence was measured on an Envision 2104 plate reader (PerkinElmer) and Fluostar Omega Reader (BMG Labtech) and data was analyzed using GraphPad PRISM v8. Synergy assessments were performed using CellTiter-Glo (Promega) with the following modifications to the protocol described in the ref. [34]. In brief, EWS502 cells were plated at 1000 cells per well in 50 µL of appropriate media in 384-well white culture plates (Corning) allowed to adhere overnight, and 100 nL of compounds were added using a Janus Workstation pin tool (PerkinElmer) for 72 h. Cell viability was measured by addition of 10 µL of CellTiter-glo (Promega), followed by incubation for 15 minutes at room temperature. Luminescence was measured on an Envision 2104 plate reader (PerkinElmer) and data was analyzed using GraphPad PRISM v8.

[3] = test system: PATU-8902 LACZ-FKBP12^F36V clone; assay: Antiproliferation, PATU-8902 LACZ-FKBP12F36V clone, 2D-monolayer (CellTiter-Glo)
Outline: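 Viability of cells grown as 2D-adherent monolayers was determined with the CellTiter-Glo luminescent reagent (Promega). Luminescence signals were read on either an Envision 2104 plate reader (PerkinElmer) or a Fluostar Omega Reader (BMG Labtech), and the resulting data were processed and analyzed in GraphPad PRISM v8 software.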

**Q.** With CC(C)(C)c1cnc(CSc2cnc(NC(=O)C3CCN(CC(=O)NCCOCCOCCOCCNc4cccc5c4C(=O)N(C4CCC(=O)NC4=O)C5=O)CC3)s2)o1 (stereo not shown) [THAL-SNS-032] as the compound, how does the “Degradation of both LACZ-FKBP12F36V and CDK9 on co-treatment” value (CDK9) read?
**A.** pronounced degradation

**Q.** Which results are given for CC[C@H](C(=O)N1CCCC[C@H]1C(=O)O[C@H](CCc1ccc(OC)c(OC)c1)c1ccccc1OCC(=O)NCCOCCOCCOCC(=O)N[C@H](C(=O)N1C[C@H](O)C[C@H]1C(=O)N[C@@H](C)c1ccc(-c2scnc2C)cc1)C(C)(C)C)c1cc(OC)c(OC)c(OC)c1 [dTAG-63]?
**A.** DMSO-normalized antiproliferation ([1]; log10[compound] (M) -4.69897): 1.902 and 1.7836 and 2.592 and 1.417; DMSO-normalized antiproliferation ([1]; log10[compound] (M) -5.19897): 1.019 and 0.7215 and 1.043 and 0.8704; DMSO-normalized antiproliferation ([1]; log10[compound] (M) -5.69897): 18.9261 and 16.9894 and 19.5961 and 18.1242; DMSO-normalized antiproliferation ([1]; log10[compound] (M) -6.19897): 26.0652 and 23.4484 and 26.4223 and 22.5834; DMSO-normalized antiproliferation ([1]; log10[compound] (M) -6.69897): 29.8671 and 30.9365 and 33.7587 and 28.015; DMSO-normalized antiproliferation ([1]; log10[compound] (M) -7.19897): 63.0328 and 57.9113 and 61.3608 and 60.3114; DMSO-normalized antiproliferation ([1]; log10[compound] (M) -7.69897): 91.5315 and 97.3637 and 98.717 and 90.5671; DMSO-normalized antiproliferation ([1]; log10[compound] (M) -8.19897): 103.715 and 106.791 and 102.663 and 104; DMSO-normalized antiproliferation ([1]; log10[compound] (M) -8.69897): 99.9165 and 93.5571 and 104.512 and 109.434; DMSO-normalized antiproliferation ([1]; log10[compound] (M) -9.19897): 108.333 and 105.196 and 111.04 and 104.691; FKBP12F36V-EWS/FLI degradation, immunoblot (FKBP12^F36V-EWS/FLI; EWS502 FKBP12F36V-EWS/FLI, EWS/FLI-/- cells): marginal degradation; NKX2-2 protein levels, immunoblot (FKBP12^F36V-EWS/FLI; relative to dTAGV-1): limited changes; Antiproliferation (relative growth) ([2]; Time 0 days): 1.033 and 1 and 1.041 and 1.01 and 1.018 and 1.028 and 1.023 and 0.847; Antiproliferation (relative growth) ([2]; Time 3 days): 5.323 and 5.646 and 6.274 and 5.9 and 5.4745 and 5.572 and 6.329 and 5.374; Antiproliferation (relative growth) ([2]; Time 5 days): 8.718 and 8.673 and 8.208 and 9.16 and 8.872 and 9.224 and 8.694 and 9.906; Antiproliferation (relative growth) ([2]; Time 7 days): 8.087 and 8.192 and 8.728 and 8.891 and 8.43 and 7.949 and 9.536 and 9.221; Antiproliferative effects upon EWS/FLI degradation ([2]; longer time-points): modest antiproliferative effects; DMSO-normalized antiproliferation ([3]; log10[compound] (M) -4.69897): 13.2737 and 12.6329 and 14.1104 and 10.912; DMSO-normalized antiproliferation ([3]; log10[compound] (M) -5.19897): 7.875 and 6.856 and 8.909 and 8.0101; DMSO-normalized antiproliferation ([3]; log10[compound] (M) -5.69897): 78.4433 and 69.3624 and 75.8082 and 79.7492; DMSO-normalized antiproliferation ([3]; log10[compound] (M) -6.19897): 113.01 and 109.862 and 96.0186 and 107.676; DMSO-normalized antiproliferation ([3]; log10[compound] (M) -6.69897): 108.532 and 100.339 and 100.126 and 107.64; DMSO-normalized antiproliferation ([3]; log10[compound] (M) -7.19897): 112.463 and 103.538 and 107.565 and 99.0951; DMSO-normalized antiproliferation ([3]; log10[compound] (M) -7.69897): 105.646 and 110.739 and 108.339 and 103.433; DMSO-normalized antiproliferation ([3]; log10[compound] (M) -8.19897): 104.397 and 99.4398 and 102.394 and 104.585; DMSO-normalized antiproliferation ([3]; log10[compound] (M) -8.69897): 100.586 and 98.6181 and 103.288 and 91.8912; DMSO-normalized antiproliferation ([3]; log10[compound] (M) -9.19897): 97.4681 and 95.2333 and 95.4033 and 78.5397
